Source: patent publication US20170307631A1, “METHODS, SYSTEMS AND PRODUCTS FOR PREDICTING RESPONSE OF TUMOR CELLS TO A THERAPEUTIC AGENT AND TREATING A PATIENT ACCORDING TO THE PREDICTED RESPONSE” (Merrimack Pharmaceuticals, Inc., priority 2008, published 2017)
Values belong to the molecule of their own block, whether it stands above or below them.

Assays:
pErbB3 in NCI-ADRr cells = assay: ErbB3 phosphorylation dose response curves for ErbB ligands (ELISA); assay type: cell-based, human
Method: (§1) For stimulation of the cells, the cells are seeded in […] at 35,000 cells per well in 96 well tissue culture plates and incubated overnight in a humidified atmosphere of 5% CO2, 95% air and 37 degrees Celsius. Cells are then switched to serum free media: RPMI-1640 media (Gibco) supplemented with, 2 mM L-glutamine (Gibco) and units/mL Pen-Strep (Gibco). Starved cells are incubated in a humidified atmosphere of 5% CO2, 95% air and 37 degrees Celsius for 20-24 hours prior to stimulation.
(§2) Levels of protein phosphorylation in the stimulated cells are measured by ELISA. Capture antibodies against ErbB1 (R&D Systems, AF231), ErbB2 (R&D Systems, MAB1129), ErbB3 (R&D Systems, MAB3481) and AKT (Upstate, 05-591MG) are incubated in 384 well black flat-bottom polystyrene high-binding plates (Corning, Catalog #3708) overnight at room temperature. The ELISA plates are blocked with 2% bovine serum albumin (BSA) and phosphate buffered saline (PBS) for one hour then incubated with lysates diluted in 2% BSA, 0.1% Tween-20 and PBS for two hours at room temp. In between each incubation, the plates are washed three times with 0.05% Tween-20 in PBS. ELISAs for measuring phospho-ErbB1, -ErbB2 and -ErbB3 are incubated with phospho-tyrosine horseradish peroxidase (HRP) linked monoclonal antibody (R&D Systems, HAM1676) for two hours. ELISAs measuring phospho-AKT are incubated with primary serine 473 specific anti-phospho AKT mouse monoclonal antibody (Cell Signaling Technologies, Catalog #5102) for 2 hours, then incubated with Streptavidin-HRP (R&D Systems, Catalog # DY998,) for 30 minutes. All ELISAs are visualized with SuperSignal ELISA Pico Chemiluminescent Substrate (Pierce, Catalog #37069) and luminescent signal is measured using a luminometer.

pErbB1 in NCI-ADRr cells = assay: ErbB1 phosphorylation dose response curves for ErbB ligands (ELISA); assay type: cell-based, human
Method: as §1, §2

pAKT in NCI-ADRr cells = assay: AKT phosphorylation dose response curves for ErbB ligands (ELISA); assay type: cell-based, human
Method: as §1, §2

pErbB2 in NCI-ADRr cells = assay: ErbB2 phosphorylation dose response curves for ErbB ligands (ELISA); assay type: cell-based, human
Method: as §1, §2

ErbB1 (E1) = ErbB1 (E1) (Homo sapiens, UniProt P00533); assay: ErbB computational model: BTC ligand binding rate parameters
Description: (§3) The ErbB receptor signaling network model consists of three receptors (ErbB1, ErbB2, ErbB3), a receptor phosphatase, phosphatidylinositol 3-kinase (PI3K, which binds the receptors) and components of the PI3K-AKT cascade (phosphatidylinositol bisphosphate, PIP2, phosphoinositide-dependent protein kinase, PDK1, PTEN deleted from chromosome 10, PTEN, serine, threonine protein kinase also known as protein kinase B, AKT, Protein phosphatase 2A, PP2A) (see Table 8 below).
(§4) Many of the reaction rate parameters are unknown in the cell system we studied and therefore had to be estimated (see Table 10 below). To avoid biasing the starting point, all parameters were set to default values (Aldridge, B. B. et al. (2006) Nat. Cell. Biol. 8:1195-1203). The number of parameters estimated was limited by performing the estimation in two stages: first the model was calibrated against the experimentally observed ErbB receptor phosphorylation data; second, the parameters sensitive to AKT phosphorylation were optimized against the experimental data. Estimated values were only accepted if the parameters were constrained under multiple parameter runs using a genetic algorithm with a population size of 50 and 25 generations (Mathworks, Mass.). […] The normalized sensitivities of each species were integrated over the two hour stimulation, and parameters with normalized, integrated sensitivities greater than an arbitrary threshold of 1000 are listed in Table 11 below. As mentioned above, ErbB4 phosphorylation was not included into the parameter estimation because the cell line studied had barely detectable ErbB4 (see Table 3 below). ErbB4 reactions are parameterized according to ErbB3 reactions.

ErbB3 (E3) = ErbB3 (E3) (Homo sapiens, UniProt P21860); assay: ErbB computational model: HRG ligand binding rate parameters
Description: as §3, §4

[1] = estimated using known Kds and initial dose response curves

EC50 (pErbB3 in NCI-ADRr cells): 380 nM
EC50 (pErbB1 in NCI-ADRr cells): 37 nM
Molecule: AR: ErbB ligand amphiregulin
pErbB3 % stimulation at 5 min relative to maximum (pErbB3 in NCI-ADRr cells): 17.0%
pErbB1 % stimulation at 5 min relative to maximum (pErbB1 in NCI-ADRr cells): 95.0%
pAKT % stimulation at 5 min relative to maximum (pAKT in NCI-ADRr cells): 28.0%
pErbB2 % stimulation at 5 min relative to maximum (pErbB2 in NCI-ADRr cells): 54.0%

forward binding rate (ErbB1 (E1); [1]): ~100000 M⁻¹ s⁻¹
kf3: BTC binding to E1 (ErbB1 (E1); model parameter): 5.00 × 10^−11 molecules−1 sec−1
kf4: BTC binding to E1 homodimers (ErbB1 (E1); model parameter): 5.00 × 10^−11 molecules−1 sec−1
kf5: BTC binding to E1 heterodimers (ErbB1 (E1); model parameter): 5.00 × 10^−11 molecules−1 sec−1
kr3: BTC dissociation from E1 (ErbB1 (E1); model parameter): 0.001 s⁻¹
kf129: BTC binding in the endosome (ErbB1 (E1); model parameter, endosome): 3.8 molecules−1 sec−1
EC50 (pErbB3 in NCI-ADRr cells): 100 nM
EC50 (pErbB1 in NCI-ADRr cells): 5.7 nM
Molecule: BTC: ErbB ligand betacellulin, binds primarily to ErbB1

Molecule: Epiregulin: ErbB ligand epiregulin
pErbB1 % stimulation at 5 min relative to maximum (pErbB1 in NCI-ADRr cells): 9.0%
pAKT % stimulation at 5 min relative to maximum (pAKT in NCI-ADRr cells): 11.0%
pErbB2 % stimulation at 5 min relative to maximum (pErbB2 in NCI-ADRr cells): 18.0%

EC50 (pErbB1 in NCI-ADRr cells): 21 nM
EC50 (pErbB2 in NCI-ADRr cells): 230 nM
Molecule: HB-EGF: ErbB ligand, heparin-binding epidermal growth factor
pErbB3 % stimulation at 5 min relative to maximum (pErbB3 in NCI-ADRr cells): 32.0%
pErbB1 % stimulation at 5 min relative to maximum (pErbB1 in NCI-ADRr cells): 87.0%
pAKT % stimulation at 5 min relative to maximum (pAKT in NCI-ADRr cells): 20.0%
pErbB2 % stimulation at 5 min relative to maximum (pErbB2 in NCI-ADRr cells): 94.0%

EC50 (pErbB3 in NCI-ADRr cells): 9.9 nM
EC50 (pAKT in NCI-ADRr cells): 1.9 nM
forward binding rate (ErbB3 (E3); [1]): ~100000 M⁻¹ s⁻¹
kf2: HRG binding to E3:E2 dimers (ErbB3 (E3); model parameter): 5.00 × 10^−11 molecules−1 sec−1
kr1: HRG dissociation from E3 (ErbB3 (E3); model parameter): 0.001 s⁻¹
kf127: HRG binding in the endosome (ErbB3 (E3); model parameter, endosome): 3.8 molecules−1 sec−1
kf1: HRG binding to E3 or E4 (ErbB3 (E3); model parameter, unit conversion from 1e5 M−1s−1/(Vmedia*Av/Num_cells)): 5.00 × 10^−11 molecules−1 sec−1
EC50 (pErbB2 in NCI-ADRr cells): 7 nM
Molecule: HRG1-β: ErbB ligand heregulin, binds to ErbB3 and ErbB4
pErbB3 % stimulation at 5 min relative to maximum (pErbB3 in NCI-ADRr cells): 100.0%
pErbB1 % stimulation at 5 min relative to maximum (pErbB1 in NCI-ADRr cells): 0.0%
pAKT % stimulation at 5 min relative to maximum (pAKT in NCI-ADRr cells): 100.0%
kr2: HRG dissociation from E3:E2 dimers (ErbB3 (E3); model parameter): 0.001 s⁻¹
pErbB2 % stimulation at 5 min relative to maximum (pErbB2 in NCI-ADRr cells): 43.0%

EC50 (pErbB1 in NCI-ADRr cells): 30 nM
Molecule: TGFα: ErbB ligand, transforming growth factor alpha

B1: Epigen: ErbB ligand epigen (protein, UniProt Q6UW88 23-154, looked up)
Epigen: AAVTVTPPITAQQGNWTVNKTEADNIEGPIALKFSHLCLEDHNSYCINGACAFHHELEKAICRCFTGYTGERCEHLTLTSYAVDSYEKYIAIGIGVGLLLSGFLVIFYCYIRKRCLKLKSPYNVCSGERRPL
pErbB3 % stimulation at 5 min relative to maximum (pErbB3 in NCI-ADRr cells): 3.0%
pErbB1 % stimulation at 5 min relative to maximum (pErbB1 in NCI-ADRr cells): 12.0%
pAKT % stimulation at 5 min relative to maximum (pAKT in NCI-ADRr cells): 11.0%
pErbB2 % stimulation at 5 min relative to maximum (pErbB2 in NCI-ADRr cells): 25.0%
